{"source": "patent US7582645B2", "about": "“Pyrimidine derivatives for treatment of hyperproliferative disorders” (Bayer Pharmaceuticals Corporation, priority 2003, dated 2009)", "note": "Structures can show the parent of a compound that is named as a salt.", "data": [{"test_system": "HCT116 cells", "test": "HCT116 cytotoxic activity assay (Alamar Blue, 72 h)", "assay_type": "cell-based", "details": "Homo sapiens, HCT-116, 72 h compound exposure, greater than 500 nM but less than or equal to 2 μM", "protocol": "(§1) Representative compounds of this invention were tested for cytotoxicity using the above-described assay procedure with the following results: […]", "units": {"IC50": "nM"}, "values": [{"compound": "COc1ccncc1-c1cc(Nc2ccc(Oc3ccnc(C(F)(F)F)c3)cc2)nc(N)n1", "note": "[Example 203, 6-(4-methoxypyridin-3-yl)-N4*-(4-{[2-(trifluoromethyl)pyridin-4-yl]oxy}phenyl)pyrimidine-2,4-diamine]", "IC50": "500 to 2000"}, {"compound": "CCSc1ccc(-c2cc(Nc3ccc(Oc4ccnc(C(F)(F)F)c4)cc3)nc(N)n2)cc1", "note": "[Example 207, 6-[4-(ethylthio)phenyl]-N4*-(4-{[2-(trifluoromethyl)pyridin-4-yl]oxy}phenyl)pyrimidine-2,4-diamine]", "IC50": "500 to 2000"}, {"compound": "CCCCc1ccc(-c2cc(Nc3ccc(Oc4ccnc(C#N)c4)cc3)nc(N)n2)cc1", "note": "[Example 220, 4-(4-{[2-amino-6-(4-butylphenyl)pyrimidin-4-yl]amino}phenoxy) pyridine-2-carbonitrile]", "IC50": "500 to 2000"}, {"compound": "NC(=O)c1cc(Oc2ccc(Nc3cc(-c4cccc(OCc5ccccc5)c4)nc(N)n3)cc2)ccn1", "note": "[Example 222, 4-[4-({2-amino-6-[3-(benzyloxy)phenyl]pyrimidin-4-yl}amino)phenoxy]pyridine-2-carboxamide]", "IC50": "500 to 2000"}, {"compound": "N#Cc1cc(Oc2ccc(Nc3cc(-c4cccc(O)c4)nc(N)n3)cc2)ccn1", "note": "[Example 226]", "IC50": "500 to 2000"}, {"compound": "COc1ccc(-c2cc(Nc3ccc(Oc4ccnc(C(N)=O)c4)cc3)nc(N)n2)cn1", "note": "[Example 230, 4-(4-{[2-amino-6-(6-methoxypyridin-3-yl)pyrimidin-4-yl]amino}phenoxy) pyridine-2-carboxamide]", "IC50": "500 to 2000"}, {"compound": "CSc1ccc(-c2cc(Nc3ccc(Oc4ccnc(C#N)c4)cc3)nc(N)n2)cc1", "note": "[Example 231, 4-[4-({2-amino-6-[4-(methylthio)phenyl]pyrimidin-4-yl}amino)phenoxy]pyridine-2-carbonitrile]", "IC50": "500 to 2000"}, {"compound": "CN(C)c1ccc(-c2cc(Nc3ccc(Oc4ccnc(C#N)c4)cc3)nc(N)n2)cc1", "note": "[Example 232, 4-[4-({2-amino-6-[4-(dimethylamino)phenyl]pyrimidin-4-yl}amino)phenoxy]pyridine-2-carbonitrile]", "IC50": "500 to 2000"}, {"compound": "N#CCc1ccc(-c2cc(Nc3ccc(Oc4ccnc(C#N)c4)cc3)nc(N)n2)cc1", "note": "[Example 235, 4-[4-({2-amino-6-(4-(cyanomethyl)phenyl]pyrimidin-4-yl}amino)phenoxy]pyridine-2-carbonitrile]", "IC50": "500 to 2000"}]}, {"test_system": "HCT116 cells", "test": "HCT116 cytotoxic activity assay (Alamar Blue, 72 h)", "assay_type": "cell-based", "details": "Homo sapiens, HCT-116, 72 h compound exposure, greater than 2 μM", "protocol": "as §1", "units": {"IC50": "nM"}, "values": [{"compound": "Nc1nc(Nc2ccc(Oc3ccnc(C(F)(F)F)c3)cc2)cc(-c2cccc(OC(F)(F)F)c2)n1", "note": "[Example 216, 6-[3-(trifluoromethoxy)phenyl]-N4*- (4-{[2-(trifluoromethyl)pyridin-4-yl]oxy}phenyl)pyrimidine-2,4-diamine]", "IC50": "> 2000"}, {"compound": "Nc1nc(Nc2ccc(Oc3ccnc(C(F)(F)F)c3)cc2)cc(-c2ccc(OC(F)(F)F)cc2)n1", "note": "[Example 217, 6-[4-(trifluoromethoxy)phenyl]-N4*- (4-{[2-(trifluoromethyl)pyridin-4-yl]oxy}phenyl)pyrimidine-2,4-diamine]", "IC50": "> 2000"}, {"compound": "N#Cc1cc(Oc2ccc(Nc3cc(-c4ccc(-c5ccccc5)c(F)c4)nc(N)n3)cc2)ccn1", "note": "[Example 221, 4-(4-{[2-amino-6-(2-fluorobiphenyl-4-yl)pyrimidin-4-yl]amino}phenoxy) pyridine-2-carbonitrile]", "IC50": "> 2000"}, {"compound": "COc1ccc(-c2cc(Nc3ccc(Oc4ccnc(C#N)c4)cc3)nc(N)n2)cc1OC", "note": "[Example 224, 4-(4-{[2-amino-6-(3,4-dimethoxyphenyl)pyrimidin-4-yl]amino}phenoxy)pyridine-2-carbonitrile]", "IC50": "> 2000"}, {"compound": "COc1ccc(-c2cc(Nc3ccc(Oc4ccnc(C#N)c4)cc3)nc(N)n2)cc1", "note": "[Example 225, 4-(4-{[2-amino-6-(4-methoxyphenyl)pyrimidin-4-yl]amino}phenoxy) pyridine-2-carbonitrile 4-(4-{[6-amino-2-(4-methoxyphenyl)pyrimidin-4-yl]amino}phenoxy) pyridine-2-carbonitrile]", "IC50": "> 2000"}, {"compound": "N#Cc1cc(Oc2ccc(Nc3cc(-c4cccnc4)nc(N)n3)cc2)ccn1", "note": "[Example 236, 4-{4-[(2-amino-6-pyridin-3-ylpyrimidin-4-yl)amino]phenoxy} pyridine-2-carbonitrile]", "IC50": "> 2000"}]}, {"test_system": "HCT116 cells", "test": "HCT116 cytotoxic activity assay (Alamar Blue, 72 h)", "assay_type": "cell-based", "details": "Homo sapiens, HCT-116, 72 h compound exposure, less than or equal to 500 nM", "protocol": "as §1", "units": {"IC50": "nM"}, "values": [{"compound": "Cc1ccccc1-c1cc(Nc2ccc(Oc3ccnc(C(F)(F)F)c3)cc2)nc(N)n1", "note": "[Example 202, 6-(2-methylphenyl)-N4*-(4-{[2-(trifluoromethyl)pyridin-4-yl]oxy}phenyl)pyrimidine-2,4-diamine]", "IC50": "≤ 500"}, {"compound": "Nc1nc(Nc2ccc(Oc3ccnc(C(F)(F)F)c3)cc2)cc(-c2ccc(F)cc2F)n1", "note": "[Example 204, 6-(2,4-difluorophenyl)-N4*-(4-{[2-(trifluoromethyl)pyridin-4-yl]oxy}phenyl)pyrimidine-2,4-diamine]", "IC50": "≤ 500"}, {"compound": "Nc1nc(Nc2ccc(Oc3ccnc(C(F)(F)F)c3)cc2)cc(-c2cccc(CO)c2)n1", "note": "[Example 205, (3-{2-amino-6-[(4-{[2-(trifluoromethyl)pyridin-4-yl]oxy}phenyl)amino]pyrimidin-4-yl}phenyl) methanol]", "IC50": "≤ 500"}, {"compound": "COc1cccc(-c2cc(Nc3ccc(Oc4ccnc(C(F)(F)F)c4)cc3)nc(N)n2)c1", "note": "[Example 206, 6-(3-methoxyphenyl)-N4*-(4-{[2-(trifluoromethyl)pyridin-4-yl]oxy}phenyl)pyrimidine-2,4-diamine]", "IC50": "≤ 500"}, {"compound": "Cc1ccc(-c2cc(Nc3ccc(Oc4ccnc(C(F)(F)F)c4)cc3)nc(N)n2)cc1N", "note": "[Example 208, 6-(3-amino-4-methylphenyl)-N4*-(4-{[2-(trifluoromethyl)pyridin-4-yl]oxy}phenyl)pyrimidine-2,4-diamine]", "IC50": "≤ 500"}, {"compound": "CC(C)c1ccc(-c2cc(Nc3ccc(Oc4ccnc(C(F)(F)F)c4)cc3)nc(N)n2)cc1", "note": "[Example 209, 6-(4-isopropylphenyl)-N4*-(4-{[2-(trifluoromethyl)pyridin-4-yl]oxy}phenyl)pyrimidine-2,4-diamine]", "IC50": "≤ 500"}, {"compound": "N#CCc1ccc(-c2cc(Nc3ccc(Oc4ccnc(C(F)(F)F)c4)cc3)nc(N)n2)cc1", "note": "[Example 210, (4-{2-amino-6-[(4-{[2-(trifluoromethyl)pyridin-4-yl]oxy}phenyl)amino]pyrimidin-4-yl}phenyl) acetonitrile]", "IC50": "≤ 500"}, {"compound": "Cc1ccc(-c2cc(Nc3ccc(Oc4ccnc(C(F)(F)F)c4)cc3)nc(N)n2)cc1", "note": "[Example 211, 6-(4-methylphenyl)-N4*-(4-{[2-(trifluoromethyl)pyridin-4-yl]oxy}phenyl)pyrimidine-2,4-diamine]", "IC50": "≤ 500"}, {"compound": "Cc1cccc(-c2cc(Nc3ccc(Oc4ccnc(C(F)(F)F)c4)cc3)nc(N)n2)c1", "note": "[Example 212, 6-(3-methylphenyl)-N4*-(4-{[2-(trifluoromethyl)pyridin-4-yl]oxy}phenyl)pyrimidine-2,4-diamine]", "IC50": "≤ 500"}, {"compound": "Nc1nc(Nc2ccc(Oc3ccnc(C(F)(F)F)c3)cc2)cc(-c2cccnc2)n1", "note": "[Example 213, 6-pyridin-3-yl-N4*-(4-{[2-(trifluoromethyl)pyridin-4-yl]oxy}phenyl)pyrimidine-2,4-diamine]", "IC50": "≤ 500"}, {"compound": "Nc1nc(Nc2ccc(Oc3ccnc(C(F)(F)F)c3)cc2)cc(-c2ccsc2)n1", "note": "[Example 214, 6-(3-thienyl)-N4*-(4-{[2-(trifluoromethyl)pyridin-4-yl]oxy}phenyl)pyrimidine-2,4-diamine]", "IC50": "≤ 500"}, {"compound": "COc1ccc(OC)c(-c2cc(Nc3ccc(Oc4ccnc(C(F)(F)F)c4)cc3)nc(N)n2)c1", "note": "[Example 215, 6-(2,5-dimethoxyphenyl)-N4*-(4-{[2-(trifluoromethyl)pyridin-4-yl]oxy}phenyl)pyrimidine-2,4-diamine]", "IC50": "≤ 500"}, {"compound": "Nc1nc(Nc2ccc(Oc3ccnc(C(F)(F)F)c3)cc2)cc(-c2cc(F)cc(F)c2)n1", "note": "[Example 218, 6-(3,5-difluorophenyl)-N4*-(4-{[2-(trifluoromethyl)pyridin-4-yl]oxy}phenyl)pyrimidine-2,4-diamine]", "IC50": "≤ 500"}, {"compound": "N#Cc1cc(Oc2ccc(Nc3cc(-c4ccc[nH]4)nc(N)n3)cc2)ccn1", "note": "[Example 219, 4-(4-{[2-amino-6-(1H-pyrrol-2-yl)pyrimidin-4-yl]amino}phenoxy) pyridine-2-carbonitrile hydrochloride]", "IC50": "≤ 500"}, {"compound": "COc1ccc(-c2cc(Nc3ccc(Oc4ccnc(C#N)c4)cc3)nc(N)n2)cn1", "note": "[Example 223, 4-(4-{[2-amino-6-(6-methoxypyridin-3-yl)pyrimidin-4-yl]amino}phenoxy) pyridine-2-carbonitrile]", "IC50": "≤ 500"}, {"compound": "N#Cc1cc(Oc2ccc(Nc3cc(-c4ccc(O)cc4)nc(N)n3)cc2)ccn1", "note": "[Example 227, 4-(4-{[2-amino-6-(4-hydroxyphenyl)pyrimidin-4-yl]amino}phenoxy) pyridine-2-carbonitrile 4-(4-{[6-amino-2-(4-hydroxyphenyl)pyrimidin-4-yl]amino}phenoxy) pyridine-2-carbonitrile]", "IC50": "≤ 500"}, {"compound": "N#Cc1cc(Oc2ccc(Nc3cc(-c4ccoc4)nc(N)n3)cc2)ccn1", "note": "[Example 228, 4-(4-{[2-amino-6-(3-furyl)pyrimidin-4-yl]amino}phenoxy)pyridine-2-carbonitrile 4-(4-{[6-amino-2-(3-furyl)pyrimidin-4-yl]amino}phenoxy) pyridine-2-carbonitrile]", "IC50": "≤ 500"}, {"compound": "N#Cc1cc(Oc2ccc(Nc3cc(-c4ccc(N)cc4)nc(N)n3)cc2)ccn1", "note": "[Example 229, 4-(4-{[2-amino-6-(4-aminophenyl)pyrimidin-4-yl]amino}phenoxy) pyridine-2-carbonitrile 4-(4-{[6-amino-2-(4-aminophenyl)pyrimidin-4-yl]amino}phenoxy)pyridine-2-carbonitrile]", "IC50": "≤ 500"}, {"compound": "COc1ccc(OC)c(-c2cc(Nc3ccc(Oc4ccnc(C#N)c4)cc3)nc(N)n2)c1", "note": "[Example 233, 4-(4-{[2-amino-6-(2,5-dimethoxyphenyl)pyrimidin-4-yl]amino}phenoxy)pyridine-2-carbonitrile]", "IC50": "≤ 500"}, {"compound": "COc1cccc(-c2cc(Nc3ccc(Oc4ccnc(C#N)c4)cc3)nc(N)n2)c1", "note": "[Example 234, 4-(4-{[2-amino-6-(3-methoxyphenyl)pyrimidin-4-yl]amino}phenoxy) pyridine-2-carbonitrile]", "IC50": "≤ 500"}]}]}
